Laboratory results published in patent US20240197664A1, “SIRTUIN OR KLOTHO ACTIVATOR OR EXPRESSION ENHANCER, NAD+ INCREASING AGENT, AND SENOLYTIC AGENT” (WAKUNAGA PHARMACEUTICAL CO., LTD., priority 2021, published 2024).

How the values were obtained:
[1] = test system: senescence-accelerated mice SAMP8; experiment: Cognitive/memory retention action (in vivo), passive avoidance test; details: mixed with food for four months, holding trial after two months
Procedure: (§1) Animals for evaluating the biological activity were bred as follows. Senescence-accelerated mice SAMP8 (male) for testing were purchased from Japan SLC, Inc. After purchase, the animals were acclimatized for one week and used as animals for the evaluation tests.
The sample prepared in the above (1) (a) was mixed with food and fed to animals for evaluation test in the above (2) for four months, and then a passive avoidance test was performed. The passive avoidance test is a test utilizing a habit that a mouse prefers a dark place, and on Day 1, a mouse already in a bright room was moved to a dark room while receiving an electrical shock (50 V/1 second), and the time it took for the mouse to enter the dark room was taken as response latency of an acquisition trial. After two months, the mouse was put in the bright room again and the time it took to move to the dark room (the response latency of a holding trial) was used as an index of memory.

[2] = test system: Klotho gene; experiment: Enhancement of Klotho gene expression in the kidney (in vivo), real-time PCR; parameters: species or system senescence-accelerated mice SAMP8; details: repeated oral administration for two weeks
From the text: as §1
(§2) After repeated oral administration of the sample prepared in the above (1) (a) to the animals for the evaluation tests in the above (2) for two weeks, kidneys of such animals were excised. The kidneys were crushed using an automatic tissue crusher, and then RNA was extracted using a TRIzol solution manufactured by Thermo Fisher Scientific K.K. cDNA was synthesized using PRIMEScript RT reagent Kit with gEraser manufactured by Takara. The synthesized cDNA was subjected to real-time PCR using KAPA SYBR Fast qPCR kit manufactured by Nippon Genetics Co., Ltd. Results are shown in FIG. 5.

[3] = test system: p16 gene; experiment: Suppression of senescent cell marker p16 gene expression in the kidney (in vivo), real-time PCR; parameters: species or system senescence-accelerated mice SAMP8; details: repeated oral administration for two weeks
From the text: as §1
(§3) After repeated oral administration of the sample prepared in the above (1) (a) to the animals for the evaluation tests in the above (2) for two weeks, kidneys of such animals were excised. The kidneys were crushed using an automatic tissue crusher, and then RNA was extracted using a TRIzol solution manufactured by Thermo Fisher Scientific K.K.
(§4) CDNA was synthesized using PRIMEScript RT reagent Kit with gEraser manufactured by Takara. The synthesized cDNA was subjected to real-time PCR using KAPA SYBR Fast qPCR kit manufactured by Nippon Genetics Co., Ltd. Results are shown in FIG. 6.

[4] = test system: lipocalin-2 (NGAL); experiment: Inhibitory action on kidney injuries (in vivo), NGAL Western Blotting; parameters: species or system senescence-accelerated mice SAMP8; details: repeated oral administration for two weeks
From the text: as §1
(§5) After repeated oral administration of the sample prepared in the above (1) (a) to the animals for the evaluation tests in the above (2) for two weeks, kidneys of such animals were excised. After the kidneys were crushed using an automatic tissue crusher, the cells were lysed with an RIPA cell lysis buffer manufactured by Millipore Corporation which was diluted 10-fold with purified water added with a protease inhibitor and a phosphatase inhibitor manufactured by Roche and then centrifuged (10,000 rpm, 10 min, 4° C.), and the supernatant was used as a cell extract. The cell extract was used for analysis by Western Blotting according to a conventional method. A kidney injury molecule (KIM-1) antibody (manufactured by R&D System) and a lipocalin-2 (NGAL) antibody (manufactured by Proteintech Group, Inc.), KIM-1 and NGAL being markers of kidney injuries, and an anti-GAPDH antibody (manufactured by Fujifilm Wako Pure Chemical Corporation) were used as antibodies.

[5] = test system: NAD+; experiment: NAD+ amount increasing action (in vivo), NAD+/NADH Assay Kit; parameters: species or system senescence-accelerated mice SAMP8; details: single oral dose (180 minutes later) and mixed with food for one month; cerebral cortices
Procedure: as §1
A single dose of the sample prepared in (1) (a) was orally administered to animals for the evaluation tests in the above (2), and then cerebral cortices of such animals were excised 180 minutes later. In addition, the sample prepared in the above (1) (a) was mixed with food and fed to animals for the evaluation tests in the above (2) for one month, and then cerebral cortices of such animals were excised. The NAD^+ amount in the cerebral cortices was measured using NAD^+/NADH Assay Kit manufactured by Dojindo Laboratories.

[6] = test system: p21 gene; experiment: Suppression of senescent cell marker p21 gene expression in the kidney (in vivo), real-time PCR; parameters: species or system senescence-accelerated mice SAMP8; details: repeated oral administration for two weeks
From the text: as §1, §3, §4

[7] = test system: SIRT1 gene; experiment: Enhancement of SIRT1 gene expression in the kidney (in vivo), real-time PCR; parameters: species or system senescence-accelerated mice SAMP8; details: repeated oral administration for two weeks
From the text: as §1, §2

[8] = test system: p53 protein; experiment: Suppression of cellular senescence marker p53 protein in the hippocampus (in vivo), Western Blotting; parameters: species or system senescence-accelerated mice SAMP8; details: repeated oral administration for six weeks
From the text: as §1
(§6) After repeated oral administration of the sample prepared in the above (1) (a) to animals for the evaluation tests in the above (2) for six weeks, hippocampi of such animals were excised. After the hippocampi were crushed using an automatic tissue crusher, the cells were lysed with a RIPA cell lysis buffer manufactured by Millipore Corporation which was diluted 10-fold with purified water added with a protease inhibitor and a phosphatase inhibitor manufactured by Roche, and then centrifuged (10,000 rpm, 10 min, 4° C.), and the supernatant was used as a cell extract. The cell extract was used for analysis by Western Blotting according to a conventional method. An anti-p53 antibody (manufactured by Proteintech Group, Inc.) and an anti-β-actin antibody (manufactured by Medical and Biological Laboratories Co., Ltd.) were used as antibodies.

[9] = test system: kidney injury molecule (KIM-1); experiment: Inhibitory action on kidney injuries (in vivo), KIM-1 Western Blotting; parameters: species or system senescence-accelerated mice SAMP8; details: repeated oral administration for two weeks
From the text: as §1, §5

[10] = biological target: T1, SIRT1 (Mus musculus, UniProt Q923E4); experiment: SIRT1 activation action (in vivo), SIRT1_GLO kit on cerebral cortex lysate; parameters: species or system senescence-accelerated mice SAMP8; details: single oral dose, 180 minutes after administration, vs control group
T1 construct: from tissue; host or cells: cerebral cortex of SAMP8 mice
T1 sequence (Q923E4 1-737): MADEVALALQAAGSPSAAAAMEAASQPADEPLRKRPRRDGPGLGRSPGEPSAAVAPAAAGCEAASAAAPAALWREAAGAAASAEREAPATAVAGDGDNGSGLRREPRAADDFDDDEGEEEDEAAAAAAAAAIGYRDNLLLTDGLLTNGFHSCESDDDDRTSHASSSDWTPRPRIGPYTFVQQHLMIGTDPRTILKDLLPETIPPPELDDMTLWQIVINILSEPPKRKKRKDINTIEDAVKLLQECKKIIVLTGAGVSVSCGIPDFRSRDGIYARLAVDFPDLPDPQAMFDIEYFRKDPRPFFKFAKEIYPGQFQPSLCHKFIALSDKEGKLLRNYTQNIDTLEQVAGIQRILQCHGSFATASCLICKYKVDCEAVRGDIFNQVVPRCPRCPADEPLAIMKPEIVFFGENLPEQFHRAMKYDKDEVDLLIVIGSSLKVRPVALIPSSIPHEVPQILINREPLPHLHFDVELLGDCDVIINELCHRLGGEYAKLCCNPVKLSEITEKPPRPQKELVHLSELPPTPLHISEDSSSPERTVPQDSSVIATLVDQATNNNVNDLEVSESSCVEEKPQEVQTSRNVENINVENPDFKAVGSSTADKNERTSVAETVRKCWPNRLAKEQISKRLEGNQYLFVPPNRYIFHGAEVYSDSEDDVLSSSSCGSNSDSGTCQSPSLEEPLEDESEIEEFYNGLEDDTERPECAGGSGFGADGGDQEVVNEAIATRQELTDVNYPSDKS
Procedure: as §1
A SIRT1_GLO kit manufactured by Promega Corporation was purchased to measure the sirtuins activity. A lysate of the cerebral cortex was placed in a 96-well plate, various reaction reagents were added, and then luminous intensity of luciferase was measured by a plate reader.
A single dose of the sample prepared in the above (1) (a) was orally administrated to animals for the evaluation tests in the above (2), and then cerebral cortices of such animals were extracted 15, 30, 60, and 180 minutes later. The cerebral cortices were crushed using an automatic tissue crusher and lysed by adding a cell dissolution liquid. Centrifugation was performed and the sirtuins activity in the supernatant thereof was measured.

[11] = test system: SIRT1 protein; experiment: SIRT1 protein increasing action (in vivo), Western Blotting of hippocampus; parameters: species or system senescence-accelerated mice SAMP8; details: repeated oral administration for two weeks
From the text: as §1
as §6, with “two” for “six”, “combined protease/phosphatase inhibitors” for “a protease inhibitor and a phosphatase inhibitor”, “Thermo Fisher Scientific K.K.,” for “Roche,”, “anti-SIRT1” for “anti-p53”, “Biolegend)” for “Proteintech Group, Inc.)”, “Fujifilm Wako Pure Chemical Corporation)” for “Medical and Biological Laboratories Co., Ltd.)”

**Q.** Which results are given for `CC=CSCC(N)C(=O)O` (centres unmarked) [S-1-propenylcysteine]?
**A.** aging-related decline in cognitive and memory functions (response latency of holding trial) [1]: ameliorated; expression of Klotho gene in the kidney [2]: increased; cells expressing p16 gene in the kidneys [3]: reduced; NGAL protein mass in the kidney [4]: reduced; NAD+ amount [5]: increased; cells expressing p21 gene in the kidneys [6]: reduced; expression of SIRT1 gene in the kidney [7]: increased; p53 protein mass in the hippocampus [8]: reduced; KIM-1 protein mass in the kidney [9]: reduced; Sirtuin activity in cerebral cortex [10]: increased; SIRT1 protein mass in the hippocampus [11]: increased
